# Assay results reported in article PMC10644327, “A randomized, double‐blind phase 1b study evaluating the safety, tolerability, pharmacokinetics and pharmacodynamics of the NLRP3 inhibitor selnoflast in patients with moderate to severe active ulcerative colitis” (Clinical and Translational Medicine, 2023).
# Read-outs that look alike come from different tables or passages of the source.
# Experiments:
# [1] = tested on: IL‐1 gene signature (CXCL1, CXCL2, CXCL3, CXCL5, CXCL6, CCL2, IL6, TNFAIP6); test: IL‐1 gene signature in sigmoid colon tissue by qPCR; type: in vivo, human; settings: mean [± SD], selnoflast arm, median log2FC of 8 genes
# Experimental: A predefined IL‐1 gene signature comprising eight genes (i.e., CXCL1, CXCL2, CXCL3, CXCL5, CXCL6, CCL2, IL6, TNFAIP6) relevant in the context of IBD was assessed in RNA extracted from the sigmoid colon tissue. The signature had been determined by combining gene expression data that met the following criteria: (1) overlapping expression profiles (upregulation by IL‐1β stimulation) in multiple cell types,[25] (2) differential expression in relevant cell types across published and proprietary single‐cell RNA‐sequencing (scRNA‐seq) datasets involving IBD patients and controls[26] and (3) co‐expression with the IL1R1 receptor and differential colonic gene expression between UC patients and healthy individuals. The 8‐gene panel was then assessed by quantitative PCR (qPCR) before and after treatment (baseline and Day 7), normalized to a set of housekeeping genes (B2M, GusB, HPRT1, MRLP19) and log2 fold changes (log2FC) from baseline were reported per gene as well as across the eight genes (median log2FC = gene signature).
# NLRC4 = tested on: NLRC4; set-up: method as in unpublished results; settings: ref unpublished results; cited from earlier work
# [2] = cited from earlier work; for Tolerability: healthy subjects, single doses 20-600 mg and multiple doses up to 450 mg QD for 7 days, ref unpublished results, study IZD334-001
# AIM2 = tested on: AIM2; set-up: method as in unpublished results; settings: ref unpublished results; cited from earlier work
# P-glycoprotein (P-gP) = tested on: P-glycoprotein (P-gP); set-up: method as in Investigator Brochure; settings: in vitro studies; ref Investigator Brochure; cited from earlier work
# [3] = tested on: IL‐1β release in whole blood; test: Inhibition of IL‐1β release in whole blood upon ex vivo stimulation with LPS (TruCulture), UC patients; set-up: species or system human; settings: for Inhibition of IL‐1β release compared to baseline: 450 mg
# Experimental: (§1) Blood samples were drawn pre‐dose and at various timepoints and placed in TruCulture whole blood collection and culture tubes that were pre‐filled with lipopolysaccharide (LPS) (final working concentration of 100 ng/mL LPS after addition of 1 mL of blood to the LPS‐containing Truculture tubes). Following 24 h incubation, TruCulture supernatants were collected, stored, and levels of secreted IL‐1β were subsequently measured in order to understand how these responded to NLRP3 inhibition by selnoflast. The levels of IL‐1β were also quantified in plasma K2EDTA samples using the same SIMOA IL‐1β Assay Kit (Quanterix). The quantitative range of the method was 0.196 to 490 pg/mL for plasma and 4.01 to 1470 pg/mL in Truculture supernatants. Plasma samples were also assessed for IL‐18, using a commercial SIMOA IL‐18 Assay Kit (Quanterix; the quantitative range for plasma was 0.0200–45.0 pg/mL).
# sigmoid colon tissue = test: Histology of sigmoid colon biopsies (Geboes score, Nancy index, neutrophils); type: in vivo, human
# Experimental: (§2) Tissue biopsies from the sigmoid colon were obtained before start of treatment (up to Day −3) and at the end of treatment (Day 7). For operational reasons, biopsies were taken 2−4.5 h post‐dose on Day 7. Stool samples were obtained at screening, before start of treatment, throughout the study, and at the 14‐day follow‐up visit. Levels of calprotectin were determined in stool samples. Sigmoid colon tissue was processed for RNA and DNA extraction as well as for single‐cell analysis, subsequent transcriptomic analysis, and identification of PD biomarkers. Sigmoid colon tissue samples were also processed for histology (hematoxylin and eosin staining, immunohistochemistry, fluorescence in situ hybridization) in order to characterize the cell types present (i.e., neutrophils and inflammatory monocytes). Histological analysis was performed on sigmoid colon tissue samples (from baseline and Day 7) using the disease‐specific histological indices Geboes score[23] and Nancy index.[24] Caspase‐1 (pro and active form) was assessed using a validated WES‐assay (manuscript in preparation).
# IL‐18 = test: Plasma IL‐18 (SIMOA) in UC patients; type: in vivo, human; settings: 450 mg QD, 7 days
# Experimental: as §1
# NLRP3 inflammasome = tested on: NLRP3 inflammasome; set-up: method as in RO7486967 Investigator Brochure; settings: ref RO7486967 Investigator Brochure; cited from earlier work
# calprotectin = test: Stool calprotectin in UC patients; type: in vivo, human; settings: Day 7, mean (± SD), selnoflast arm; results called uninterpretable (8/19 baseline samples not per protocol)
# Experimental: as §2
# [4] = cited from earlier work
# [5] = set-up: method as in Investigator Brochure; settings: ref Investigator Brochure, cited from earlier work
# [6] = set-up: method as in Investigator Brochure; settings: ref Investigator Brochure, cited from earlier work; remark: listed apart in the source
# Caspase‐1 = Caspase‐1 (pro and active form) WES‐assay in sigmoid colon tissue; type: in vivo, human; settings: after 7 days’ treatment
# Experimental: as §2
structure (smiles),measurement,setting,value
"CCN1CCC(S(=O)(=O)NC(=O)Nc2c3c(cc4c2CCC4)CCC3)CC1 [Selnoflast, selnoflast]","IL‐1 gene signature, log2FC from baseline to Day 7",[1],−1.14 [± 1.8] log2FC
same,Inhibitory activity on NLRC4 inflammasome,NLRC4,no inhibitory activity
same,"Bacterial, viral, fungal, and other opportunistic infections","[2]; HVs in the Phase I clinical study, ref Investigator Brochure",No evidence
same,Healthy volunteers with mild transaminase increase,"[2]; MAD part, volunteers who received RO7486967, no clear dose dependency, not clinically significant, ref Study IZD334-001",4 out of 18
same,Tolerability,[2],well tolerated
same,Tolerability,[2]; listed as RO7486967,safe and well tolerated
same,Inhibitory activity on AIM2 inflammasome,AIM2,no inhibitory activity
same,P-gp substrate status,P-glycoprotein (P-gP),potential substrate
same,Inhibition of IL‐1β release compared to baseline,"[3]; Day 1, from 30 min until at least 10 h post‐dose, mean (± SD)",> 95%
same,inhibition at 450 mg,"[3]; Homo sapiens, at trough (25–100 h post‐dose), 450 mg QD, read-out: Inhibition of IL‐1β release compared to baseline",~90%
same,Inhibition of IL‐1β release compared to baseline,"[3]; just before the next administration on Day 2, mean (SD)",91.2%
same,"Geboes score and Nancy index, difference between study arms",sigmoid colon tissue; baseline and Day 7,No notable differences
same,"Neutrophils in sigmoid colon tissue, change from baseline","sigmoid colon tissue; mean (± SD), active treatment arm, Day 7",−13.23 (± 140.76) cells/mm^2
same,Patients with marked reduction from baseline in neutrophils in sigmoid colon tissue,"sigmoid colon tissue; selnoflast‐treated patients, Day 7",Three out of the 13
same,Change in plasma IL‐18 levels upon treatment,IL‐18,no significant changes
same,Effect on IL-1β release and cell death in vitro,NLRP3 inflammasome,inhibit IL-1β release and cell death in vitro
same,Stool calprotectin change from baseline,calprotectin,+4146.6 (± 12321.12) μg/g
same,Dose dependence of systemic exposure,"[4]; healthy subjects, 20 to 600 mg, ref unpublished results, IZD334‐001",approximately dose‐proportional
same,Median Tmax,"[4]; healthy subjects, single administration, 20 to 600 mg, fasted, ref unpublished results, IZD334‐001",30 to 360 min
same,Steady‐state achieved,"[4]; healthy subjects, ref unpublished results, IZD334‐001",Day 2
same,Change in exposure on repeat dosing,"[4]; healthy volunteers, repeat dosing for 7 days, ref study IZD334-001",no indication of a change
same,half-life,"[4]; healthy volunteers, ref study IZD334-001",approximately 7 hours
same,Signs of hepatotoxicity,"[5]; 26-week GLP study, rat",no signs of hepatotoxicity
same,"Bacterial, viral, fungal, and other opportunistic infections","[5]; rats, nonclinical toxicology studies",No evidence
same,Signs of hepatotoxicity,"[6]; 39-week GLP study, monkey",no signs of hepatotoxicity
same,"Bacterial, viral, fungal, and other opportunistic infections","[6]; monkeys, nonclinical toxicology studies",No evidence
same,Caspase‐1 (pro‐ and active forms) change,Caspase‐1,did not show marked changes
